Calls of active or inactive are those of the source. The rule behind the calls is not given here.
How the values were obtained:
MCF7 = experiment: Antiproliferative activity against human MCF7 cells after 48 hrs by MTT assay; format: functional, cell-based; conditions: MCF7, 48 h
[1] = target: T1, Epidermal growth factor receptor (Homo sapiens, UniProt P00533); experiment: Inhibition of autophosphorylation of recombinant His-tagged EGFR expressed in baculovirus infected Sf9 cells after 1 hr by DELFIA/time-resolved fluorimetry assay
T1 sequence (P00533 whole entry): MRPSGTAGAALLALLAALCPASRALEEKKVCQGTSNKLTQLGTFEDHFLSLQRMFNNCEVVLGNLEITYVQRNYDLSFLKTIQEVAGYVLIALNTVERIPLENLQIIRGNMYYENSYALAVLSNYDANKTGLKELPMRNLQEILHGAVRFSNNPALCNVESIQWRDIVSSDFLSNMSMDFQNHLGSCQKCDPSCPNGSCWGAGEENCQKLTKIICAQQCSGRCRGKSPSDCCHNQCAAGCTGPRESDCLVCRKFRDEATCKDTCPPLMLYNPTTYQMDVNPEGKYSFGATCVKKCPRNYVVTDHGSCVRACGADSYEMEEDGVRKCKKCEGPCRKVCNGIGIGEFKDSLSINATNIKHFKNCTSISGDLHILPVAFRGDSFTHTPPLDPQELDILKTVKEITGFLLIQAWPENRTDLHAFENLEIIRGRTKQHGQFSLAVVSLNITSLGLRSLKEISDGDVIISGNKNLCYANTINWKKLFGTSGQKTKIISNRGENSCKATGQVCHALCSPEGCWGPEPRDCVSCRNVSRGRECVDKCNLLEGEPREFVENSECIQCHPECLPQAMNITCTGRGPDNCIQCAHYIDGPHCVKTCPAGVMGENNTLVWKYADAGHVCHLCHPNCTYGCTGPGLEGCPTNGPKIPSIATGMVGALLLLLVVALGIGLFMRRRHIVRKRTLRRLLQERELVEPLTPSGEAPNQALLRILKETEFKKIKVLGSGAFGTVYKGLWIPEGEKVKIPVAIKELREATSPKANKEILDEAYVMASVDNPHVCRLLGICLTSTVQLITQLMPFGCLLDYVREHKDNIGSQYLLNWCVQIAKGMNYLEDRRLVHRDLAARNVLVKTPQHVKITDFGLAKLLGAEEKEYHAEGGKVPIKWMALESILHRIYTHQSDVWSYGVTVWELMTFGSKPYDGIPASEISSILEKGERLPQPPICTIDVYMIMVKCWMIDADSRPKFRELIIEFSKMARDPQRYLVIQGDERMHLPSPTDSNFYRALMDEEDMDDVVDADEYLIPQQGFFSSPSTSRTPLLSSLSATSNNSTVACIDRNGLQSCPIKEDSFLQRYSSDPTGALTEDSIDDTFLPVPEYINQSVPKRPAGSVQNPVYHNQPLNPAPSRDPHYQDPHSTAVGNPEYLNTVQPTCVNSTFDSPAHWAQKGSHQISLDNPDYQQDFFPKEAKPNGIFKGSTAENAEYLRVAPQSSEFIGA

[2] = target: T1, Epidermal growth factor receptor; experiment: Inhibition of EGF-stimulated EGFR autophosphorylation in human MCF7 cells at >1.5 uM treated 1 hr before EGF challenge measured after 15 mins by Western immunoblot analysis; format: cell-based

SMILES: O=C(NS(=O)(=O)c1ccc(F)cc1)c1cncc(Br)c1
- IC50 (MCF7): 0.98 µM
- IC50 [1]: 3.27 µM

SMILES: O=C(NS(=O)(=O)c1ccc(F)cc1)c1cccnc1Cl
- IC50 (MCF7): 12.5 µM
- IC50 [1]: 28.7 µM

SMILES: O=C(NS(=O)(=O)c1ccc(Br)cc1)c1cncc(Br)c1
- IC50 (MCF7): 0.34 µM
- IC50 [1]: 2.08 µM

SMILES: O=C(NS(=O)(=O)c1ccc(Cl)cc1)c1cccnc1
- IC50 (MCF7): 13 µM
- IC50 [1]: 25.4 µM

SMILES: Cc1ccc(S(=O)(=O)NC(=O)c2cccnc2)cc1
- IC50 (MCF7): 12 µM
- IC50 [1]: 24.8 µM

SMILES: Cc1ccc(C(=O)NS(=O)(=O)c2ccc(Cl)cc2)c(Cl)n1
- IC50 (MCF7): 1.35 µM
- IC50 [1]: 1.19 µM

SMILES: Cc1ccc(S(=O)(=O)NC(=O)c2ccc(C)nc2Cl)cc1
- IC50 (MCF7): 8.52 µM
- IC50 [1]: 15 µM

SMILES: O=C(NS(=O)(=O)c1ccc(Br)cc1)c1cccnc1Cl
- IC50 (MCF7): 11.4 µM
- IC50 [1]: 15.7 µM

SMILES: Cc1ccc(S(=O)(=O)NC(=O)c2cccnc2Cl)cc1
- IC50 (MCF7): 12.5 µM
- IC50 [1]: 27 µM

SMILES: O=C(NS(=O)(=O)c1ccc(F)cc1)c1ccc(Cl)nc1
- IC50 (MCF7): 16.8 µM
- IC50 [1]: > 30 µM

SMILES: Cc1ccc(S(=O)(=O)NC(=O)c2ccc(Cl)nc2)cc1
- IC50 (MCF7): 17.2 µM
- IC50 [1]: > 30 µM

SMILES: O=C(NS(=O)(=O)c1ccc(Br)cc1)c1cccnc1
- IC50 (MCF7): 14.7 µM
- IC50 [1]: > 30 µM

SMILES: Cc1ccc(S(=O)(=O)NC(=O)c2cncc(Br)c2)cc1
- IC50 (MCF7): 9.37 µM
- IC50 [1]: 12.1 µM

SMILES: O=C(NS(=O)(=O)c1ccccc1)c1ccc(Cl)nc1
- IC50 (MCF7): 14.1 µM
- IC50 [1]: > 30 µM

SMILES: O=C(NS(=O)(=O)c1ccccc1)c1cccnc1
- IC50 (MCF7): 14.4 µM
- IC50 [1]: > 30 µM

SMILES: O=C(NS(=O)(=O)c1ccc(F)cc1)c1cccnc1
- IC50 (MCF7): 16 µM
- IC50 [1]: > 30 µM

SMILES: O=C(NS(=O)(=O)c1ccc(Cl)cc1)c1cccnc1Cl
- IC50 (MCF7): 10.2 µM
- IC50 [1]: 19.8 µM

SMILES: Cc1ccc(C(=O)NS(=O)(=O)c2ccccc2)c(Cl)n1
- IC50 (MCF7): 13.4 µM
- IC50 [1]: 21.6 µM

SMILES: O=C(NS(=O)(=O)c1ccccc1)c1cccnc1Cl
- IC50 (MCF7): 14 µM
- IC50 [1]: > 30 µM

SMILES: Cc1ccc(C(=O)NS(=O)(=O)c2ccc(Br)cc2)c(Cl)n1
- IC50 (MCF7): 1.97 µM
- IC50 [1]: 2.64 µM

SMILES: O=C(NS(=O)(=O)c1ccc(Cl)cc1)c1cncc(Br)c1
- IC50 (MCF7): 0.07 µM
- IC50 [1]: 0.09 µM
- inhibition [2]: Active

SMILES: O=C(NS(=O)(=O)c1ccc(Br)cc1)c1ccc(Cl)nc1
- IC50 (MCF7): 9.05 µM
- IC50 [1]: 29.1 µM

SMILES: O=C(NS(=O)(=O)c1ccc(Cl)cc1)c1ccc(Cl)nc1
- IC50 (MCF7): 8.07 µM
- IC50 [1]: 18.1 µM

— ChEMBL document CHEMBL1944626, “Design, synthesis and biological evaluation of N-phenylsulfonylnicotinamide derivatives as novel antitumor inhibitors” (Bioorg Med Chem, 2012)
